Assay: Stability in human liver microsomes
Format: in vitro ADME
Conditions: HLM, scaled

## O=C(O)Cc1ccccc1Nc1c(Cl)cccc1Cl [Diclofenac, diclofenac]
  CLint(liver): 200.0 mL/min/kg
